Experimental data taken from US20070093410A1, “Selective inhibition of proteasomes of tuberculosis and other bacteria” (President and Fellows of Harvard College, priority 2004, published 2007).
Non-standard residues stand in square brackets, D forms with d. Residues, ends and D or L forms follow the SMILES beside them. No end group written: not given here. *: point of attachment. Biotin = O=C1N[C@H]2[C@H](CS[C@H]2CCCCC(=O)*)N1; Nle = CCCC[C@H](N)C(=O)O; Cbz = O=C(OCc1ccccc1)*

How the values were obtained:
[1] = test system: SDS-activated 20S mammalian proteasomes; assay: Inhibition of individual active sites of SDS-activated 20S mammalian proteasomes, fluorogenic substrates specific for each active site; format: biochemical, rabbit; conditions: sites other than the one the inhibitor is specific for; FIG. 1C
Experimental: (§1) FIGS. 1A-1D depict hydrolysis of bKKQ10KK (SEQ ID NO:5) by the trypsin-like active site of the eukaryotic proteasome. A) 80 μM bKKQ10KK (SEQ ID NO:5) was incubated with mammalian (rabbit) 20S proteasomes with or without PA28αβ, 0.02% SDS. B) 35 μM bKKQ10KK (SEQ ID NO:5) was incubated with yeast wild type and ‘open-gate’ (α3ΔN) proteasomes. C) Mammalian 20S proteasomes were treated with inhibitors specific to each active site. D) After inactivation, the proteasomes were further incubated with bKKQ10KK (SEQ ID NO:5).
(§2) To identify which active site of the proteasome cleaved after bKKQ, inhibitors that selectively block the individual active sites were used. SDS-activated 20S mammalian proteasomes were treated with the irreversible inhibitors, 4-hydroxy-5-iodo-3-nitrophenylacetyl-Leu-Leu-vinyl sulfone (NLVS); (Bogyo et al., supra, incorporated herein by reference in its entirety for all purposes), which is specific for the chymotrypsin-like site; Acetyl-Tyr-Arg-Leu-Asn-vinyl sulfone (SEQ ID NO:20) (Ac-YRLN-VS), which reacts primarily with the trypsin-like site (Nazif et al. (2001) Proc. Natl. Acad. Sci. USA 98:2967, incorporated herein by reference in its entirety for all purposes); or with the reversible inhibitor of the caspase-like site, Z-Pro-norLeu-Asp-aldehyde (Z-PnLD-CHO) (Kisselev et al. (2003) supra, incorporated herein by reference in its entirety for all purposes). The extent of inhibition of the different sites was assayed using fluorogenic substrates specific for each active site. […] After inactivation of each type of active site, the proteasomes were incubated with bKKQ10KK. […] Thus, cleavage after bKKQ was due to the activity of the trypsin-like site, presumably because of the two-lysine residues preceding the initial Q residue.

[2] = test system: SDS-activated 20S mammalian proteasomes; assay: bKKQ10KK cleavage by 20S mammalian proteasomes after inactivation of each type of active site; format: biochemical, rabbit; conditions: proteasomes pre-treated with inhibitor, then incubated with bKKQ10KK; FIG. 1D
Experimental: as §1, §2
For 20S proteasomes, 20 mM Hepes (pH 7.5) containing 1 mM dithiothreitol (DTT) was used. For reactions with 26S proteasomes, the buffer also contained 0.5 mM ATP and 2.5 mM MgCl2. All reactions were performed at 37° C. […] The reaction was terminated with 0.4 ml of ice-cold water and fluorescence read at 380 nm excitation and 470 nm emission. […]

[3] = molecular target: T1, archaebacterial 'open-gate' 20S proteasomes (Thermoplasma acidophilum, UniProt P28061); assay: Hydrolysis of bKKQ20KK by archaebacterial 'open-gate' 20S proteasomes, effect of proteasome inhibitor; format: biochemical; conditions: 37° C.
T1 sequence (P28061 9-211): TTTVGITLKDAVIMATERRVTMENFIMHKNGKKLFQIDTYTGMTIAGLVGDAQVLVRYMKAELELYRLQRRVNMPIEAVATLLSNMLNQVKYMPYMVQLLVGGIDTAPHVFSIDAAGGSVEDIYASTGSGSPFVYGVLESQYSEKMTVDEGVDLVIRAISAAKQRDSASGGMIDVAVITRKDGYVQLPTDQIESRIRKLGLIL
Experimental: (§3) FIGS. 4A-4B depict multiple cleavages within the polyQ sequence by archaebacterial proteasomes. A) bKKQ20KK (SEQ ID NO:9) (25 μM) was incubated with 0.6 μg of yeast or 250 ng of archaebacterial ‘open-gate’ 20S particles in a total volume of 50 μl. B) Products generated by the archaebacterial proteasomes were analyzed by MALDI-TOF.
(§4) 20S proteasomes of archaebacteria, e.g., Thermoplasma acidophilum, contain 14 identical active sites, which, though originally classified as “chymotrypsin-like” (Dahlmann et al. (1991) Biomed. Biochim. Acta 50:465, incorporated herein by reference in its entirety for all purposes), were later shown to cleave also after basic and acidic residues (Akopian et al., supra). These “less-specific” active sites were tested to determine if they could degrade within a polyQ sequence. […] It was determined that mutant archaebacterial proteasomes lacking this gate (Δ7α) (Benaroudj et al., supra, incorporated herein by reference in its entirety for all purposes) cleaved polyQ peptides and control peptides at least 17 fold faster than the wild-type particles. […]
(§5) For 20S proteasomes, 20 mM Hepes (pH 7.5) containing 1 mM dithiothreitol (DTT) was used. […] The reaction was terminated with 0.4 ml of ice-cold water and fluorescence read at 380 nm excitation and 470 nm emission.

rabbit 26S proteasomes = assay: Peptide cleavage by 26S proteasomes (new amino groups, fluorescamine assay); format: biochemical; conditions: 35 μM peptide, FIG. 2
Experimental: FIG. 2 graphically depicts rapid cleavage of the flanking RRGRR (SEQ ID NO:6) in Q20RRGRR (SEQ ID NO:7) by eukaryotic proteasomes. 35 μM of each of the following peptides bKKQ10KK (SEQ ID NO:8), bKKQ20KK (SEQ ID NO:9), N-extended-KK-Q20-KK (SEQ ID NO:10), Q20RRGRR (SEQ ID NO:7) and a control 20-mer peptide […] (SEQ ID NO:12), lacking any repeat sequence were incubated with 7.2 μg of rabbit 26S particles in a total volume of 40 μl. New amino groups formed were assayed.
Although 26S proteasomes cleaved these polyQ peptides slowly and only after the initial Q residues, they cleaved a Q20 (SEQ ID NO: 30) sequence with RRGRR (SEQ ID NO:6) at its C-terminus 5 to 6-fold faster than other polyQ peptides (FIG. 2) studied and at similar rates to the 20-mer control peptide (though not as fast as YGGFLRRIRPKLK (SEQ ID NO:29), a 13-mer which is cleaved at least 2 times faster).
For 20S proteasomes, 20 mM Hepes (pH 7.5) containing 1 mM dithiothreitol (DTT) was used. For reactions with 26S proteasomes, the buffer also contained 0.5 mM ATP and 2.5 mM MgCl2. All reactions were performed at 37° C. 5 μl aliquots were withdrawn at different times, 50 μl of 0.2M sodium phosphate (pH 6.8) was added and then mixed vigorously with 50 μl fluorescamine for 3 minutes. The reaction was terminated with 0.4 ml of ice-cold water and fluorescence read at 380 nm excitation and 470 nm emission.

bKKQ10KK (SEQ ID NO:8) = test system: T2, bKKQ10KK (SEQ ID NO:8)
T2 sequence: KKQQQQQQQQQQKK

bKKQ20KK (SEQ ID NO:9) = test system: T3, bKKQ20KK (SEQ ID NO:9)
T3 sequence: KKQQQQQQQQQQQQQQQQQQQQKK

yeast 20S proteasomes = assay: Hydrolysis of bKKQ10KK by yeast wild type and 'open-gate' (α3ΔN) 20S proteasomes; format: biochemical; conditions: 35 μM bKKQ10KK; FIG. 1B
Experimental: as §1
To test whether 20S proteasomes could cleave within a polyQ sequence, a peptide containing 10 Q-residues flanked at each end by two lysine residues to enhance solubility (bKKQ10KK) (SEQ ID NO:8) and biotin on the α amino group was initially used as a substrate. […] Similarly, a mutant form (α3ΔN) of the yeast proteasome with an N-terminal deletion in the α3 subunit, which causes ‘gate-opening’, hydrolyzed bKKQ10KK (SEQ ID NO:8), approximately ten-fold faster than the wild-type (FIG. 1B). Thus, entry of this peptide and its cleavage depends on the presence of an ‘open-gate’ in the α-ring. […]
as §5

eukaryotic proteasomes = assay: Competitive inhibition of hydrolysis of standard fluorogenic substrates by eukaryotic proteasomes; format: biochemical
Text: In contrast to eukaryotic proteasomes, the ancestral particles from the archaebacterium T. acidophilum digested polyQ peptides very rapidly and degraded completely the myoglobin-polyQ fusion protein. Unlike the eukaryotic homologs, these prokaryotic proteasomes contain 14 identical active sites of broad specificity. […] The data presented herein indicate that the trypsin-like sites can cleave after a P1 glutamine if the preceding residue at P2 is a lysine and at P3 a αN-blocked lysine. […] Thus, their failure to degrade polyQ-sequences is due to the inability of their active sites to bind the polyQ repeat, not to the proteasome's unique catalytic mechanism, which is similar in eukaryotic and archaebacterial particles.

[4] = molecular target: T1, archaebacterial 'open-gate' 20S proteasomes; assay: Cleavage of polyQ peptides by archaebacterial 'open-gate' (Δ7α) 20S proteasomes; format: biochemical; conditions: half the concentration of the yeast particles, 37° C.
Experimental: as §3, §4, §5

[5] = test system: T4, Acetyl-Tyr-Arg-Leu-Asn-vinyl sulfone (SEQ ID NO:20)
T4 sequence: YRLN

[6] = test system: bovine PA 28alpha-beta (Boston Biochem, Inc.)

Compound: 4-hydroxy-5-iodo-3-nitrophenylacetyl-Leu-Leu-vinyl sulfone [NLVS]
- effect on the other two peptidase activities [1]: without significantly affecting the other two
- reduction of bKKQ10KK cleavage [2]: no significant effect

Compound: CC(C)C[C@@H](C=O)NC(=O)[C@H](CC(C)C)NC(=O)[C@H](CC(C)C)NC(=O)OCc1ccccc1 [MG132] (Cbz-Leu-Leu-Leu-aldehyde)
- inhibition of bKKQ20KK hydrolysis [3]: inhibited this process

Compound: CCCC[C@H](NC(=O)[C@@H]1CCCN1C(=O)OCc1ccccc1)C(=O)N[C@H](C=O)CC(=O)O [Z-PnLD-CHO, Z-Pro-norLeu-Asp-aldehyde] (Cbz-Pro-[Nle]-Asp-aldehyde)
- effect on the other two peptidase activities [1]: without significantly affecting the other two
- reduction of bKKQ10KK cleavage [2]: no significant effect

Compound: Acetyl-Tyr-Arg-Leu-Asn-vinyl sulfone (Ac-YRLN-{vinyl sulfone}) [Ac-YRLN-VS]
- effect on the other two peptidase activities [1]: without significantly affecting the other two
- reduction of bKKQ10KK cleavage [2]: about 70%

Compound: Q20RRGRR: Q20 sequence with RRGRR at its C-terminus (SEQ ID NO:7) (QQQQQQQQQQQQQQQQQQQQRRGRR; Peptide generated by solid-phase peptide synthesis)
- cleavage rate relative to other polyQ peptides (rabbit 26S proteasomes): 5 to 6 fold

Compound: archaebacterial 'open-gate' 20S proteasomes (delta7alpha) of Thermoplasma acidophilum
- rate of peptide cleavage against yeast 'open-gate' 20S proteasomes, 37° C. (bKKQ10KK (SEQ ID NO:8)): cleaved both bKKQ10KK (SEQ ID NO:8) and bKKQ20KK (SEQ ID NO:9) at least 70 times faster than the yeast ‘open-gate’ 20S proteasomes
- rate of peptide cleavage against yeast 'open-gate' 20S proteasomes, 37° C. (bKKQ20KK (SEQ ID NO:9)): cleaved both bKKQ10KK (SEQ ID NO:8) and bKKQ20KK (SEQ ID NO:9) at least 70 times faster than the yeast ‘open-gate’ 20S proteasomes

Compound: bKKQ10KK: peptide containing 10 Q-residues flanked at each end by two lysine residues, biotin on the α amino group (SEQ ID NO:8) (Biotin-KKQQQQQQQQQQKK)
- hydrolysis rate by α3ΔN mutant relative to wild-type yeast proteasome (yeast 20S proteasomes): approximately ten-fold
- competitive inhibition of hydrolysis of standard fluorogenic substrates (eukaryotic proteasomes): could not competitively inhibit

Compound: bKKQ20KK: Q20 sequence flanked by two lysine residues on each end and biotin on the α amino group (SEQ ID NO:9) (Biotin-KKQQQQQQQQQQQQQQQQQQQQKK)
- time to complete consumption of the peptide [4]: ≤ 45 min

Compound: rabbit 20S proteasomes
- decrease in the individual peptidase activities (fluorogenic substrates specific for each active site) [5]: Each inhibitor caused an 85%-95% decrease in the individual peptidase activities without significantly affecting the other two
- reduction of bKKQ10KK cleavage [5]: Treatment with Ac-YRLN-VS (SEQ ID NO:20) reduced bKKQ10KK (SEQ ID NO:8) cleavage by about 70%
- hydrolysis of bKKQ10KK and of standard fluorogenic peptide substrates [6]: Rabbit 20S proteasomes, when purified in their latent state, were inactive against bKKQ10KK (SEQ ID NO:8) (FIG. 1A) or against standard fluorogenic peptide substrates, unless PA28αβ, or 0.02% SDS was added
